Where a SMILES comes first, the peptide text is derived from it. The star is where a group is joined. Cbz = O=C(OCc1ccccc1)*
How the values were obtained:
Type in all cases: biochemical
mICE = target: T1, mICE (Mus musculus, UniProt P29452); assay: Fluorescence enzyme assay, IC50 determination, ICE; details: recombinant enzyme, Ac-YVAD-AMC substrate, 30 min preincubation, room temperature; read-out: mICE IC50
T1 sequence (P29452 123-296 limits assumed): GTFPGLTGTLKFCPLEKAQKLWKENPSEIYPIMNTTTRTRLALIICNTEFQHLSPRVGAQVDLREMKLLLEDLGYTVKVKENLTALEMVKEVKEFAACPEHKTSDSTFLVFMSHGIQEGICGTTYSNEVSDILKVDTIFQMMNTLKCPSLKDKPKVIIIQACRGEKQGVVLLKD
T1 sequence (P29452 315-402 limits assumed): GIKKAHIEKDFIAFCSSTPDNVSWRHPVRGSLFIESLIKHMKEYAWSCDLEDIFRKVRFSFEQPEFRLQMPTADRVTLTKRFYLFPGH
Description: Fluorescence enzyme assays detecting the activity of the compounds of Formula 1 utilizing the recombinant ICE and CPP32 enzymes are performed essentially according to Thornberry et al. (Nature, 356:768:774 (1992)) and Nicholson et al. (Nature, 376:37–43 (1995)) respectively, (herein incorporated by reference) in 96 well microtiter plates. The substrate is Acetyl-Tyr-Val-Ala-Asp-amino-4-methylcoumarin (AMC) for the ICE assay and Acetyl-Asp-Glu-Val-Asp-amino-4-methylcoumarin for the CPP32, Mch2, Mch3 and Mch5 assays. Enzyme reactions are run in ICE buffer (25 mM HEPES, 1 mM EDTA, 0.1% CHAPS, 10% sucrose, pH 7.5) containing 2 mM DTT at room temperature in duplicate.
The enzyme and the compound of Formula I to be assayed are allowed to preincubate in the microtitre plate wells for 30 minutes at room temperature prior to the addition of substrate to initiate the reaction. Fluorescent AMC product formation is monitored for one hour at room temperature by measuring the fluorescence emission at 460 nm using an excitation wavelength of 360 nm. The fluorescence change in duplicate (control) wells are averaged and the mean values are plotted as a function of inhibitor concentration to determine the inhibitor concentration producing 50% inhibition (IC50). The results of this assay are set forth below in Table 1 and in Table 3 (for Table 3, see Examples 11 through 52).
The reference compound for this assay was Cbz-ValAlaAsp-H and the values are denoted in Table 1 as “Reference”.

CPP32 = target: T2, CPP32 (Homo sapiens, UniProt P42574); assay: Fluorescence enzyme assay, IC50 determination, CPP32; details: recombinant enzyme, Ac-DEVD-AMC substrate, 30 min preincubation, room temperature; read-out: CPP32 IC50
T2 sequence (P42574 29-175 limits assumed): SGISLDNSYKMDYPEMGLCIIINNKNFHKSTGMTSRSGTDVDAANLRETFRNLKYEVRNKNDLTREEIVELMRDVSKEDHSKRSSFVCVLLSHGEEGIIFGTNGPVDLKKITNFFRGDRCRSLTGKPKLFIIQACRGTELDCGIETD
T2 sequence (P42574 176-277 limits assumed): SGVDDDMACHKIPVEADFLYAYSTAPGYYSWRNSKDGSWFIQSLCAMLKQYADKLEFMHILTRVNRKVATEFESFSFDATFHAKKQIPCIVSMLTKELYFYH

MCH-2 = target: T3, MCH-2 (Homo sapiens, UniProt P55212); assay: Fluorescence enzyme assay, IC50 determination, Mch2; details: Ac-DEVD-AMC substrate, 30 min preincubation, room temperature; read-out: MCH-2 IC50
T3 sequence (P55212 24-179 limits assumed): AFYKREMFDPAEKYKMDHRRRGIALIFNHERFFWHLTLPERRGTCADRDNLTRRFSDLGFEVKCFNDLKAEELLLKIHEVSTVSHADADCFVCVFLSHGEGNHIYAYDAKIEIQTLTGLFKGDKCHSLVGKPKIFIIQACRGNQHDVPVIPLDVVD
T3 sequence (P55212 194-293 limits assumed): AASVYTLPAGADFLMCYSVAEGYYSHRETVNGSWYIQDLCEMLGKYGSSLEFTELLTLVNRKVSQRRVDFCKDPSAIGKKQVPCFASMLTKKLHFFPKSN
Method in brief: (§1)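 Recombinant enzyme preincubated with compound 30 min at room temperature in 25 mM HEPES, 1 mM EDTA, 0.1% CHAPS, 10% sucrose, pH 7.5, 2 mM DTT. Substrate Ac-YVAD-AMC for ICE, Ac-DEVD-AMC for Mch2/Mch3/Mch5. AMC fluorescence (ex 360/em 460 nm) followed 1 h; IC50 from duplicate means vs inhibitor concentration.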

MCH-3 = target: T4, MCH-3 (Homo sapiens, UniProt P55210); assay: Fluorescence enzyme assay, IC50 determination, Mch3; details: Ac-DEVD-AMC substrate, 30 min preincubation, room temperature; read-out: MCH-3 IC50
T4 sequence (P55210 24-198 limits assumed): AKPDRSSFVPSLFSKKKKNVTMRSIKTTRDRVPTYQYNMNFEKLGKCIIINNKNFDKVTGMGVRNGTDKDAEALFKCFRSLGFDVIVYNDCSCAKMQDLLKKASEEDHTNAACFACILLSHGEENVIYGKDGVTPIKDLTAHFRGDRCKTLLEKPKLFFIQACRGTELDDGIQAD
T4 sequence (P55210 207-303 limits assumed): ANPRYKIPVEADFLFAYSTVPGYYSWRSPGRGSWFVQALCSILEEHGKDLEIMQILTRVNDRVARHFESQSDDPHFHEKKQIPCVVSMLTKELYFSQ
Method in brief: as §1

MCH-5 = MCH-5 (Homo sapiens, UniProt Q14790); assay: Fluorescence enzyme assay, IC50 determination, Mch5; details: Ac-DEVD-AMC substrate, 30 min preincubation, room temperature; read-out: MCH-5 IC50
MCH-5, sequence (Q14790 217-374 limits assumed, species assumed): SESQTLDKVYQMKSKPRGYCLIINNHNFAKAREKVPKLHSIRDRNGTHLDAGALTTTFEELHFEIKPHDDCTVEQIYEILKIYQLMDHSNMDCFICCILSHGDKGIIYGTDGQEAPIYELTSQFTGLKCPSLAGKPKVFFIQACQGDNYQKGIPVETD
MCH-5, sequence (Q14790 385-479 limits assumed, species assumed): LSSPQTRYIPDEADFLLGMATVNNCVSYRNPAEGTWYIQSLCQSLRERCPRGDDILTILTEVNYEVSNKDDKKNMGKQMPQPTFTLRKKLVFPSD
Method in brief: as §1

| IC50 (mICE) [nM] | IC50 (CPP32) [µM] | IC50 (MCH-2) [µM] | IC50 (MCH-3) [µM] | IC50 (MCH-5) [nM] | Structure (SMILES) |
| --- | --- | --- | --- | --- | --- |
| 204 | 14 | 3.53 | > 50 | 1550 | O=C[C@H](CC(=O)O)NC(=O)[C@@H]1CSC(c2ccccc2)N1C(=O)COc1cccc2ccccc12 (stereo partly drawn) [Example 179, (3S,2′RS,4′R)-3-[3′-((1-Naphthyloxy)Acetyl)-2′-Phenylthiazolidine-4′-Carbonyl]Amino-4-Oxobutanoic Acid] |
| 298 | 25.3 | > 50 | > 50 | 39800 | O=C[C@H](CC(=O)O)NC(=O)[C@@H]1Cc2ccccc2N1C(=O)COc1cccc2ccccc12 [Example 186, (2′S,3S)-3-[N-((1-Naphthyloxy)Acetyl)Indoline-2′-Carbonyl]Amino-4-Oxobutanoic Acid] |
| 127 | 0.207 | 1.01 | 11 | 615 | CC(C)[C@H](NC(=O)COc1cccc2c(NS(=O)(=O)C(F)(F)F)cccc12)C(=O)N[C@H](C=O)CC(=O)O [Example 188, (3S)-3-[N-((5′-Trifluoromethylsulfonylamino-1′-Naphthyloxy)Acetyl)Valinyl]Amino-4-Oxobutanoic Acid] |
| 64 | 47 | > 10 | > 10 | 2960 | CC(C)[C@H](NC(=O)OCc1ccccc1)C(=O)N[C@@H](C)C(=O)N[C@H](C=O)CC(=O)O [reference, Cbz-ValAlaAsp-H, reference compound] (Cbz-Val-Ala-Asp-aldehyde) |

Source: patent US7157430B2, “(Substituted)acyl dipeptidyl inhibitors of the ICE/CED-3 family of cysteine proteases” (Idun Pharmaceuticals, Inc., priority 1998, dated 2007)
